What was measured:
[1] = system: A2058 human melanoma cells; test: LPA1 chemotaxis assay; type: cell-based; conditions: 100 nM LPA, read-out: IC50, inhibition of LPA-driven chemotaxis
Experimental: Chemotaxis of the A2058 human melanoma cells was measured using the Neuroprobe ChemoTx® System plates (8 μm pore size, 5.7 mm diameter sites). The filter sites were coated with 0.001% fibronectin (Sigma) in 20 mM Hepes, pH 7.4 and allowed to dry. A2058 cells were serum-starved for 24 hours, then harvested with Cell Stripper and resuspended in DMEM containing 0.1% fatty-acid-free bovine serum albumin (BSA) to a concentration of 1×10^6/ml. Cells were mixed with an equal volume of test compound (2×) in DMEM containing 0.1% fatty-acid-free BSA and incubated at 37° C. for 15 minutes. LPA (100 nM in DMEM containing 0.1% fatty-acid-free BSA) or vehicle was added to each well of the lower chamber and 50 μl of the cell suspension/test compound mix was applied to the upper portion of the ChemoTx plate. Plates were incubated at 37° C. for three hours and then the cells removed from the upper portion by rinsing with PBS and scraping. The filter was dried then stained with HEMA 3 Staining System (Fisher Scientific). The absorbance of the filter was read at 590 nm and IC50s were determined using Symyx Assay Explorer.

Female CD-1 mice = test: Bleomycin-induced lung fibrosis model in mice; type: in vivo
Description: Female CD-1 mice (Harlan, 25-30 g) are housed 4 per cage, given free access to food and water and allowed to acclimate for at least 7 days prior to test initiation. After the habituation phase, mice are lightly anesthetized with isoflurane (5% in 100% O2) and administered with bleomycin sulfate (0.01-5 U/kg, Henry Schein) via intratracheal instillation (Cuzzocrea S et al. Am J Physiol Lung Cell Mol. Physiol. 2007 May; 292(5):L1095-104. Epub 2007 Jan. 12.). Mice are returned to their cages and monitored daily for the duration of the experiment. Test compound or vehicle is delivered po, ip or sc daily. The route and frequency of dosing is based on previously determined pharmacokinetic properties. All animals are sacrificed using inhaled isoflurane 3, 7, 14, 21 or 28 days after bleomycin instillation. Following sacrifice, mice are intubated with a 20 gauge angiocatheter attached to a 1 ml syringe. Lungs are lavaged with saline to obtain bronchoalveolar lavage fluid (BALF) and then removed and fixed in 10% neutral buffered formalin for subsequent histopathological analysis. BALF is centrifuged for 10 min at 800×g to pellet the cells and the cell supernatant removed and frozen at −80° C. for subsequent protein analysis using the DC protein assay kit (Biorad, Hercules, Calif.) and soluble collagen analysis using Sircol (Biocolor Ltd, UK). BALF is analyzed for concentrations of inflammatory, pro-fibrotic and tissue injury biomarkers including transforming growth factor β1, hyaluronic acid, tissue inhibitor of metalloproteinase-1, matrix matelloproteinase-7, connective tissue growth factor and lactate dehydrogenase activity, using commercially available ELISA. The cell pellet is re-suspended in PBS. Total cell counts are then obtained using a Hemavet hematology system (Drew Scientific, Wayne, Pa.) and differential cells counts are determined using Shandon cytospin (Thermo Scientific, Waltham, Mass.). Lung tissue is stained using hematoxylin and eosin (H&E) and trichrome and lung fibrosis.is determined by semiquantitative histopathological scoring (Ashcroft T. et al. J. Clin. Path. 1988; 41; 4, 467-470.) using light microscopy (10× magnification) and quantitative, computer-assisted densitometry of collagen in lung tissue sections using light microscopy. The data are plotted using Graphpad prism and statistical differences between groups determined.

[2] = chronic setting (14-days only), single bleomycin instillation (3.0 units)
[3] = chronic setting (14 and 28 day), single bleomycin (1.5 units/kg) instillation
[4] = chronic setting, repeated bleomycin (3.0-5.0 units/kg/week) instillations

| Structure (SMILES) | IC50 [1] | lactate in the BALF (Female CD-1 mice; acute setting (3-day)) | tissue inhibitor of metalloproteinase-1 (TIMP-1; pro-fibrotic marker) concentration in BALF (Female CD-1 mice; acute setting (3 day)) | total protein in broncheoalveolar lavage fluid (BALF) (Female CD-1 mice; acute setting (3 day)) | fibrosis (Female CD-1 mice; [2]) | inflammatory cell influx (Female CD-1 mice; [2]) | efficacy at reducing lung tissue damage and fibrosis compared to pirfenidone (Female CD-1 mice; 14 day mouse bleomycin model) | MMP7 concentration in BALF (Female CD-1 mice; acute setting (3 day)) | TGFβ1 concentration in BALF (Female CD-1 mice; acute setting (3 day)) | hyaluronan concentration in BALF (Female CD-1 mice; acute setting (3 day)) | lactate dehydrogenase activity (LDH; tissue injury marker) in BALF (Female CD-1 mice; acute setting (3 day)) | fibrosis (Female CD-1 mice; [3]) | inflammatory cell influx (Female CD-1 mice; [3]) | mouse body weight (Female CD-1 mice; [3]) | lung fibrosis (Female CD-1 mice; [4]) | pulmonary resistance (Female CD-1 mice; [4]) |
| --- | --- | --- | --- | --- | --- | --- | --- | --- | --- | --- | --- | --- | --- | --- | --- | --- |
| Cc1noc(-c2ccc(-c3ccc(CC(=O)O)cc3)cc2)c1NC(=O)O[C@H](C)c1ccccc1 [Compound 1-115] | < 300 nM | reduced | reduced | reduced | decreased | decreased | – | – | – | – | – | – | – | – | – | – |
| Cc1noc(-c2ccc(-c3ccc(CC(=O)O)cc3)cc2)c1NC(=O)O[C@H](C)c1ccccc1Cl [Compound 1-88, (4′-{4-[(R)-1-(2-Chloro-phenyl)-ethoxycarbonylamino]-3-methyl-isoxazol-5-yl}-biphenyl-4-yl)-acetic acid] | < 300 nM | – | significantly reduced | significantly reduced | – | – | superior efficacy to pirfenidone | significantly reduced | significantly reduced | significantly reduced | significantly reduced | decreased | decreased | maintained | decreased | decreased |
